Measurements taken from PubChem BioAssay AID1963842 (Molecular Pharmacology Branch, DTP, NCI, 2024).

Test system: 677734-321-R-J1-PDC complex spheroid viability
Assay: Anticancer human tumor 677734-321-R-J1-PDC patient-derived soft tissue sarcoma cell line growth inhibition [POLQ]
Settings: for IC50: curve of first compound; for viability, T/C: stronger effect = lower value
Description: Multicellular complex tumor spheroid response to Polymerase (POL) inhibitors (novobiocin, ART-558, RP6685) in combination with a variety of drugs and investigational agents in selected tumor cell lines
The POL inhibitors (novobiocin, ART-558, and RP6685) were evaluated both individually and in combination with standard of care and investigational anticancer small molecules within a complex spheroid model of solid tumors. . Complex spheroids include a stromal component modeled by human endothelial cells (HUVEC) and fibroblasts modeled by human mesenchymal stem cells (MSCs). The concentration ranges selected for each drug and investigational agent were based upon clinically achievable concentrations if the clinical Cmax of the agent was known.
Compounds. The drugs and investigational agents: novobiocin (NSC847541), ART-558 (NSC835418), RP-6685 (NSC848927), peposertib (NSC802822), ceralasertib (NSC780249), elimusertib (NSC800525), camonsertib (NSC841442), AZD-1390 (NSC803789), olaparib (NSC753686), talazoparib (NSC767125), rucaparib (NSC756644), sotorasib (NSC818433), MRTX-1133 (NSC836407), SN-38 (NSC673596), topotecan (NSC609699), epotoside (NSC141540), doxorubicin (NSC123127), gemcitabine (NSC613327), 5-fluorouracil (NSC19893), paclitaxel (NSC125973), vemurafenib (NSC761431), MSA-2 (NSC828583), SN-011 (NSC837082), adavosertib (NSC754352), prexasertib (NSC758257), carboplatin (NSC241240) and oxaliplatin (NSC266046), were obtained from the National Cancer Institute (NCI) Developmental Therapeutics Program Chemical Repository (21). The FDA-approved anticancer drug set is available from the Developmental Therapeutics Program at https://dtp.cancer.gov/organization/dscb/obtaining/. […] The stock solutions were prepared in dimethyl sulfoxide (DMSO, Sigma-Aldrich, St. Louis, MO, cat. D2650), except for the platinum compounds which were prepared in saline (Quality Biological, Gaithersburg, MD, cat. 114-055-101), at 800-fold the tested concentration and stored at -70 degrees C prior to their use. All drugs and investigational agents were tested over a range starting from a high concentration at or near the clinical Cmax and decreasing in half-log increments. If the clinical Cmax for an agent had not been determined, the highest concentration tested was 10 microM, except for SN-38, which was tested at a high concentration of 1 microM.
Cell Culture. All cells were maintained in an incubator at 37 degrees C and 5% CO2 with 95% humidity. The PDC lines were cultured according to standard operating procedures established by the NCI PDMR (https://pdmr.cancer.gov). Table 3 of the manuscript, lists the cell lines along with the number of the three cell types plated to form the mct-spheroids and media for tumor cell growth. After thawing, all PDC lines, except 997537-175-T-J1-PDC and 415267-285-R-J2-PDC, were cultured in Matrigel-coated flasks prepared with a working solution of 1X Ham's F-12 nutrient mix, without supplementation (Thermo Fisher Scientific, cat. 11765054), 100 U/mL penicillin-streptomycin (Thermo Fisher Scientific, cat. 15140122), and 2.5% Matrigel (Corning Inc., Corning, NY, cat. 354248) for the first three passages. The two PDC lines 997537-175-T-J1-PDC and 415267-285-R-J2-PDC were cultured on uncoated flasks. The 857933-349-R-J2-PDC line was cultured in 6C/Colon 1B media containing advanced DMEM/F-12 (Thermo Fisher Scientific, cat. 12634028), 10 mM HEPES (Thermo Fisher Scientific, cat. 15630080), 1X GlutaMAX supplement (Thermo Fisher Scientific, cat. 35050061), 0.1 mg/mL primocin (InvivoGen, San Diego, CA, cat. ant-pm-2), 10% defined fetal bovine serum, heat inactivated (HyClone Laboratories Inc., Logan, UT, cat. SH30070.03HI), 50% L-WRN conditioned media (ATCC, cat. CRL-3276), 1.25 mM N-Acetyl-L-cysteine (Sigma-Aldrich, cat. A9165), 10 mM nicotinamide (Sigma-Aldrich, cat. N0636), 1X B-27 supplement (Thermo Fisher Scientific, cat. 17504044), 1X N-2 supplement (Thermo Fisher Scientific, cat. […]

[1] = second compound 0.0316 µM, first compound 0.0316 µM
[2] = second compound 0.0316 µM, first compound 0.1 µM
[3] = second compound 0.0316 µM, first compound 0.316 µM
[4] = second compound 0.0316 µM, first compound 1 µM
[5] = second compound 0.1 µM, first compound 0.0316 µM
[6] = second compound 0.1 µM, first compound 0.1 µM
[7] = second compound 0.1 µM, first compound 0.316 µM
[8] = second compound 0.1 µM, first compound 1 µM
[9] = second compound 0.316 µM, first compound 0.0316 µM
[10] = second compound 0.316 µM, first compound 0.1 µM
[11] = second compound 0.316 µM, first compound 0.316 µM
[12] = second compound 0.316 µM, first compound 1 µM
[13] = second compound 1 µM, first compound 0.0316 µM
[14] = second compound 1 µM, first compound 0.1 µM
[15] = second compound 1 µM, first compound 0.316 µM
[16] = second compound 1 µM, first compound 1 µM
[17] = second compound 3.16 µM, first compound 0.0316 µM
[18] = second compound 3.16 µM, first compound 0.1 µM
[19] = second compound 3.16 µM, first compound 0.316 µM
[20] = second compound 3.16 µM, first compound 1 µM
[21] = second compound 10 µM, first compound 0.0316 µM
[22] = second compound 10 µM, first compound 0.1 µM
[23] = second compound 10 µM, first compound 0.316 µM
[24] = second compound 10 µM, first compound 1 µM
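Note: spheroids exposed to compounds for one week.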
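Throughout, for viability, T/C: 100% = vehicle DMSO treated spheroids.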

`C=CCn1c(=O)c2cnc(Nc3ccc(N4CCN(C)CC4)cc3)nc2n1-c1cccc(C(C)(C)O)n1` + Cc1cccc(N(C)C(=O)C2C(O)CCN2c2nc(C)cc(C(F)(F)F)c2C#N)c1 was tested, and the IC50 (second compound 0.0316 µM) was 0.627 µM, the IC50 (second compound 0.1 µM) was 0.478 µM and the IC50 (second compound 0.316 µM) was 0.661 µM. It also gave an IC50 (second compound 1 µM) of 0.401 µM, an IC50 (second compound 3.16 µM) of 0.537 µM and an IC50 (second compound 10 µM) of 0.493 µM. It also gave a viability, T/C (second compound 0.0316 µM, first compound 0.00316 µM) of 102%, a viability, T/C (second compound 0.0316 µM, first compound 0.01 µM) of 102% and a viability, T/C [1] of 102%. It also gave a viability, T/C [2] of 90.6%, a viability, T/C [3] of 81% and a viability, T/C [4] of 29.7%. It also gave a viability, T/C (second compound 0.1 µM, first compound 0.00316 µM) of 88.6%, a viability, T/C (second compound 0.1 µM, first compound 0.01 µM) of 92.4% and a viability, T/C [5] of 106%. For the same compound, the viability, T/C [6] was 78.4%, the viability, T/C [7] was 67.4% and the viability, T/C [8] was 21.7%. It also gave a viability, T/C (second compound 0.316 µM, first compound 0.00316 µM) of 96.7%, a viability, T/C (second compound 0.316 µM, first compound 0.01 µM) of 95.3% and a viability, T/C [9] of 90.9%. The viability, T/C [10] was 85.6%, the viability, T/C [11] was 79% and the viability, T/C [12] was 34.4%. The viability, T/C (second compound 1 µM, first compound 0.00316 µM) was 117%, the viability, T/C (second compound 1 µM, first compound 0.01 µM) was 93.7% and the viability, T/C [13] was 98.9%. For the same compound, the viability, T/C [14] was 85%, the viability, T/C [15] was 51.4% and the viability, T/C [16] was 30.2%. For the same compound, the viability, T/C (second compound 3.16 µM, first compound 0.00316 µM) was 107%, the viability, T/C (second compound 3.16 µM, first compound 0.01 µM) was 87.7% and the viability, T/C [17] was 76.3%. The viability, T/C [18] was 87.8%, the viability, T/C [19] was 66.8% and the viability, T/C [20] was 31.9%. The viability, T/C (second compound 10 µM, first compound 0.00316 µM) was 89.6%, the viability, T/C (second compound 10 µM, first compound 0.01 µM) was 82.6% and the viability, T/C [21] was 95.3%. It also gave a viability, T/C [22] of 82.3%, a viability, T/C [23] of 70% and a viability, T/C [24] of 18.6%.

Compound `O=C(c1cc(Cc2n[nH]c(=O)c3ccccc23)ccc1F)N1CCN(C(=O)C2CC2)CC1` + Cc1cccc(N(C)C(=O)C2C(O)CCN2c2nc(C)cc(C(F)(F)F)c2C#N)c1 has an IC50 (second compound 0.0316 µM) greater than 10 µM, an IC50 (second compound 0.1 µM) greater than 10 µM and an IC50 (second compound 0.316 µM) greater than 10 µM. It also gave an IC50 (second compound 1 µM) greater than 10 µM, an IC50 (second compound 3.16 µM) greater than 10 µM and an IC50 (second compound 10 µM) greater than 10 µM. It also gave a viability, T/C [1] of 108%, a viability, T/C [2] of 95.2% and a viability, T/C [3] of 101%. For the same compound, the viability, T/C [4] was 97.2%, the viability, T/C (second compound 0.0316 µM, first compound 3.16 µM) was 96.8% and the viability, T/C (second compound 0.0316 µM, first compound 10 µM) was 83%. It also gave a viability, T/C [5] of 105%, a viability, T/C [6] of 103% and a viability, T/C [7] of 101%. It also gave a viability, T/C [8] of 99.3%, a viability, T/C (second compound 0.1 µM, first compound 3.16 µM) of 95.4% and a viability, T/C (second compound 0.1 µM, first compound 10 µM) of 80%. For the same compound, the viability, T/C [9] was 103%, the viability, T/C [10] was 103% and the viability, T/C [11] was 97.5%. It also gave a viability, T/C [12] of 94.6%, a viability, T/C (second compound 0.316 µM, first compound 3.16 µM) of 100% and a viability, T/C (second compound 0.316 µM, first compound 10 µM) of 80.2%. The viability, T/C [13] was 115%, the viability, T/C [14] was 93.3% and the viability, T/C [15] was 102%. The viability, T/C [16] was 103%, the viability, T/C (second compound 1 µM, first compound 3.16 µM) was 100% and the viability, T/C (second compound 1 µM, first compound 10 µM) was 84.7%. It also gave a viability, T/C [17] of 110%, a viability, T/C [18] of 95.8% and a viability, T/C [19] of 103%. For the same compound, the viability, T/C [20] was 99.6%, the viability, T/C (second compound 3.16 µM, first compound 3.16 µM) was 98.9% and the viability, T/C (second compound 3.16 µM, first compound 10 µM) was 81.6%. For the same compound, the viability, T/C [21] was 99.8%, the viability, T/C [22] was 101% and the viability, T/C [23] was 94.1%. The viability, T/C [24] was 96.4%, the viability, T/C (second compound 10 µM, first compound 3.16 µM) was 89.4% and the viability, T/C (second compound 10 µM, first compound 10 µM) was 80.4%.
